Measured values published in US10709757B2, “Pharmaceutical composition for anti-angiogenesis containing cyclic pentadepsipeptide as an effective ingredient” (CHUNG-ANG UNIVERSITY INDUSTRY-ACADEMIC COOPERATION …, priority 2017, dated 2020).

Assays:
[1] = test system: human umbilical vein endothelial cells (HUVECs); test: MTT assay, VEGF-induced proliferation of HUVECs; assay type: cell-based; settings: 24 hours
Description: After being cultured to 80-90% confluence, human umbilical vein endothelial cells (HUVECs) were additionally cultured in an M199 medium supplemented with 1% FBS for 6 hours, and then treated with neo-N-methylsansalvamide (NMSSV) at various concentrations in the presence of VEGF (50 ng/ml) for 24 hours. Effects of neo-N-methylsansalvamide (NMSSV) on the viability and growth inhibition of the HUVEC cells were measured by a 3-(4,5-dimethylthiazol-2-yl)-2,5-diphenyltetrazolium bromide (MTT) assay method.
In order to identify the effects of the neo-N-methylsansalvamide (NMSSV, Peak 2, hereinafter, referred to as P2) of the present invention on the proliferation in VEGF-induced HUVECs, it was confirmed that cells were proliferated by culturing the cells with P2 at various concentrations in the presence or absence of VEGF (50 ng/ml) by the method in Example 1-2 and performing an MTT assay 24 hours after the culture.

[2] = test system: ERK1/2; test: Phosphorylation assay of ERK1/2 in VEGF-induced HUVECs (Western); assay type: cell-based, human; settings: VEGF 50 ng/ml, FIG. 2
Description: (§1) After being cultured to 80-90% confluence, human umbilical vein endothelial cells (HUVECs) were additionally cultured in an M199 medium supplemented with 1% FBS for 6 hours, and then treated with neo-N-methylsansalvamide (NMSSV) at various concentrations in the presence of VEGF (50 ng/ml) for 10 minutes. Effects of neo-N-methylsansalvamide (NMSSV) in the phosphorylation assay of ERK1/2, AKT, and eNOS of HUVEC cells were measured by a Western assay method using each antibody.
(§2) In this case, the HUVECs were pre-cultured for 10 minutes prior to the VEGF stimulation and along with P2 for 40 minutes.

[3] = test system: AKT; test: Phosphorylation assay of AKT in VEGF-induced HUVECs (Western); assay type: cell-based, human; settings: VEGF 50 ng/ml, FIG. 2
Description: as §1, §2

[4] = test system: eNOS; test: Phosphorylation assay of eNOS in VEGF-induced HUVECs (Western); assay type: cell-based, human; settings: VEGF 50 ng/ml, FIG. 2
Description: as §1, §2

[5] = test system: HUVECs; test: Colony tube formation assay; assay type: cell-based, human; settings: Matrigel, VEGF 50 ng/ml, 24 hours, FIG. 3
Description: After being cultured to 80-90% confluence in a plate covered with Matrigel (Collaborative Biomedical Products, Bedford, Mass.), HUVECs were additionally cultured in an M199 medium supplemented with 1% FBS for 6 hours, and then treated with neo-N-methylsansalvamide (NMSSV) at various concentrations in the presence of VEGF (50 ng/ml) for 24 hours. The tube formation was photographed by using a phase-contrast microscope.
The formation of capillary-like tubular structures by endothelial cells is one of the most essential steps in the development of angiogenesis, and it was checked whether P2 inhibited the formation of capillary-like network structures in HUVECs in Matrigel.

[6] = test system: HUVECs; test: Wound-healing migration assay; assay type: cell-based, human; settings: VEGF 50 ng/ml, 24 hours, FIG. 4
Description: When cells were grown to approximately 90%, the medium was suctioned, and then a line was created by steadily scratching the bottom of the plate with a yellow tip, and then the cells were washed with PBS and treated with neo-N-methylsansalvamide (NMSSV) at various concentrations in the presence of VEGF (50 ng/ml) for 24 hours. After 24 hours, the tendency of cells to migrate at each treatment concentration was photographed and observed by marking the position under a microscope at 40× magnification.
(§3) Subsequently, the migration and invasion of endothelial cells is also a main step of angiogenesis leading to the formation of new blood vessels, so that effects of P2 on mobility and invasiveness of VEGF-induced HUVECs were checked by using a wound-healing migration assay and a Transwell invasion assay.

[7] = test system: HUVECs; test: Transwell invasion assay; assay type: cell-based, human; settings: VEGF 50 ng/ml, 24 hours, FIG. 5
Description: An experiment was performed by using a modified Boyden chamber prepared with a polycarbonate nucleopore membrane (Corning, Corning, N.Y.). After trypsin-EDTA was added to the cells, the cells were collected, the cells were measured by using a hematocytometer, and then the concentration was set to 4×10^5 cells/ml, and the cells were respectively aliquoted. After 700 μl of the medium was added to the bottom well and an insert was placed thereon, 100 μl of cells prepared with neo-N-methylsansalvamide (NMSSV) at various concentrations were aliquoted into the insert in the presence of VEGF (50 ng/ml) and cultured in an incubator at 37° C. for 24 hours. […] After the cells, which succeeded in passing through the gelatin, were fixed with 4% paraformaldehyde, the cells were stained by using crystal violet, washed twice with PBS, and then placed on a glass plate. Thereafter, the cells were observed by using a microscope, and arbitrary five points were marked, photographed, and observed.
as §3

[8] = test system: mouse aortic ring; test: Aortic ring assay (ex vivo VEGF-induced vascularization); settings: in the presence of VEGF, FIG. 6
Description: 150 μl of Matrigel was put into a 48-well plate, uniformly spread by shaking the 48-well plate, and hardened in an incubator at 37° C. for 30 minutes. After a C57BL/6 mouse was over-anesthetized with ether and sacrificed, the aorta was extracted and washed with PBS to remove the fat, the resulting aorta was transferred to human endothelial-SFM and excised by using micro scissors. The excised aorta was placed on the hardened Matrigel, 50 μl of Matrigel was dropped on the aorta tissue, and then hardened in an incubator at 37° C. for 30 minutes. 200 μl of a medium including neo-N-methylsansalvamide (NMSSV) and VEGF was each added, and cells were observed while being cultured in a CO2 incubator at 37° C. After treatment with the test material, the cells were cultured for 14 days. On Day 7 and Day 14 of the culture, the cells were observed and photographed by an invert microscope (OLYMPUS, CKX41), and the lengths of the blood vessels produced were measured by photographing the aorta with the Toupview program (OLYMPUS, ver.3.5).
Based on the results in the Examples, the effects of P2 on ex vivo VEGF-induced neovascularization were identified, so that an aortic ring assay was performed in order to check the effects of P2 on the formation of capillary vessels in the presence of VEGF.

[9] = test system: C57BL/6 mice; test: Matrigel plug assay (in vivo VEGF-induced angiogenesis); set-up: species or system mouse; settings: seven days, FIG. 7
Description: A test material administration group and a VEGF (50 ng/ml) administration group were established, and each group consisted of six 8-week-old C57BL/6 mice. 0.5 ml of Matrigel, 50 U/ml of heparin, and a test material were formulated for use at each concentration right before the administration, and formulated such that VEGF was also included in the test material administration group. Seven days after the administration, a Matrigel plug was extracted, a photograph was taken, the amount of hemoglobin was measured by using the Drabkin method (Drabkin reagent kit 525, Sigma-Aldrich, Louis, Mo.), and purification was performed.
0.6 ml of the test material solution was administered to the dorsal hypodermis of each test animal by using a 1-ml syringe.
Thus, additionally through an in vivo Matrigel plug assay, the effects of P2 on in vivo angiogenesis were checked.

[10] = test system: C57BL/6 mice; test: Laser-induced choroidal neovascularization (CNV) mouse model, angiography; assay type: in vivo; settings: intravitreal injection once, 14 days after laser, vs control, FIG. 8
Description: (§4) More specifically, male 6-week-old C57BL/6 mice were purchased from Orient Bio Inc., and acclimated for 1 week, and then anesthetized, and the pupils were dilated. Subsequently, an animal model was prepared by irradiating the space around the ophthalmic nerves in 12, 3, 6, and 9 o'clock directions with diode green laser (532 nm, 200 mW, 0.8 sec, 50 μm, and photocoagulator) to cause injury to 3 to 4 sites per eyeball.
(§5) After injury was caused to mice with laser by the method in Example 1-9-1 and the mice were anesthetized one day later, 2 μL was administered into the vitreous body of both eyes once (intravitreal injection) using a 34 gauge needle. Subsequently, 14 days after the irradiation with laser, angiography and staining and imaging of CNV were performed.
14 days after the irradiation with laser, the mice experienced mydriasis and were systemically anesthetized by injecting 80 mg/kg of alfaxalone into the abdominal cavities of the mice, and then 1% fluorescein was intraperitoneally injected into the mice. And then, after the mice were photographed by using a Micron IV device, the CNV lesion area was measured by using Image-Pro Plus software.
Accordingly, in the animal models prepared by the methods in Examples 1-9, the degree to which the contrast medium was leaked according to the administration of NMSSV was compared with that of the control.

[11] = test system: C57BL/6 mice; test: Laser-induced CNV mouse model, isolectin B4 immunofluorescence staining; assay type: in vivo; settings: intravitreal injection once, 2 weeks after laser, vs control, FIG. 9
Description: as §4, §5
14 days after the irradiation with laser, eyeballs were extracted from the mice, and then fixed in 4% paraformaldehyde for 1 hour. […] Thereafter, after the complex tissue was washed with PBS, the tissue with a fluorescence mounting medium (Vector, USA) was fixed on a slide glass, and then covered with a cover slip, and the tissue was observed and photographed through a fluorescence microscope. The CNV lesion area was measured by using Image-Pro Plus software. […]

CC(C)CC1OC(=O)[C@H](Cc2ccccc2)NC(=O)[C@H](CC(C)C)NC(=O)[C@H](C(C)C)NC(=O)[C@H](CC(C)C)N(C)C1=O (single isomer, unassigned) [P2, neo-N-methylsansalvamide]
proliferation of HUVECs induced by VEGF ([1]; VEGF 50 ng/ml, MTT, FIG. 1): dose-dependently inhibited | apoptosis (cytotoxicity) in HUVECs ([1]; at 5 μg/ml of P2, MTT): significant apoptosis was not detected | phosphorylation of ERK1/2 induced by VEGF [2]: inhibited the phosphorylation | phosphorylation of AKT induced by VEGF [3]: inhibited the phosphorylation | phosphorylation of eNOS induced by VEGF [4]: inhibited the phosphorylation | VEGF-induced colony tube formation in HUVECs [5]: significantly inhibited | VEGF-induced migration of HUVECs [6]: significantly decreased | invasion of HUVECs due to VEGF through Matrigel [7]: blocked | formation of VEGF-induced blood vessels in a mouse aortic ring [8]: significantly inhibited | content of hemoglobin of Matrigel plug treated with VEGF ([9]; Drabkin method): continuously inhibited the content of hemoglobin | formation of new blood vessels in Matrigel plug ([9]; compared to VEGF alone, subcutaneous plug): the formation of new blood vessels was decreased | CNV lesion area (angiography) [10]: the CNV lesion area is decreased | fluorescein leakage [10]: the fluorescein leakage was decreased | CNV lesion area (isolectin B4 stained area) [11]: significantly decreased
